In ChEMBL document CHEMBL5729239, “Aryl, heteroaryl, and heterocyclic compounds for treatment of immune and inflammatory disorders” (2022) one finds IC50 data, which are given here for six compounds.

Chain of Complement factor D (P00746 whole entry): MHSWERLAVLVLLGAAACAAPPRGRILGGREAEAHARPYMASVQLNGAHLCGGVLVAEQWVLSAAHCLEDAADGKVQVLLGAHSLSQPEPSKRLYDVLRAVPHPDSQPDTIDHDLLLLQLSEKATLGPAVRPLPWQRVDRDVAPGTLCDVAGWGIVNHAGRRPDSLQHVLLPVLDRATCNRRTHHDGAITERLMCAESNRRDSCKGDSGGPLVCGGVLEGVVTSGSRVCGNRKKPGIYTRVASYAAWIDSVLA

The experiment has as its target Complement factor D (Homo sapiens, UniProt P00746). Briefly: Human Factor D Assay: Human Factor D (purified from human serum, Complement Technology, Inc.) at 80 nM final concentration is incubated with test compound at various concentrations for 5 min at room temperature in 50 mM Tris, 1M NaCl, pH 7.5. A synthetic substrate Z-L-Lys-SBzl and DTNB (Ellman's reagent) are added to final concentrations of 100 μM each. […] IC50 values are calculated by nonlinear regression of complement Factor D reaction rates as a function of test compound concentration.
Regarding `CC(=O)c1nn(CC(=O)N2C[C@H](F)C[C@H]2C(=O)O)c2ccc(-c3cnc(C)nc3)cc12`, the IC50 – broadly, the concentration needed to halve the response being measured – was above 10 µM. On to `CC(=O)c1nn(CC(=O)N2C[C@H](F)C[C@H]2C(=O)NCCC(C)(C)C)c2ccc(-c3cnc(C)nc3)cc12`, for which the IC50 is below 1 µM. For `Cc1cccc(CC(O)[C@@H]2C[C@@H](F)CN2C(=O)Cn2cc(C(N)=O)c3cc(-c4cnc5cc(C)nn5c4)ccc32)n1` (stereo partly specified) the value was above 10 µM; for `NC(=O)c1cc(-c2ccco2)n(CC(=O)N2C[C@H](F)C[C@H]2C(=O)Nc2cccc(Br)n2)n1`, below 1 µM; for `CC(=O)c1nn(CC(=O)N2C[C@H](F)C[C@H]2C(=O)NCCOC(F)(F)F)c2ccc(-c3cnc(C)nc3)cc12`, below 1 µM. Turning to `CC(=O)c1nn(CC(=O)N2C[C@H](F)C[C@H]2C(=O)Nc2cccc(-c3ccccc3Cl)c2F)c2ccc(N3C[C@H]4CCCC[C@H]4C3)cc12`, the IC50 is below 1 µM.
